Experimental data from US6071896A, “Suppression of thromboxane levels by percutaneous administration of aspirin” (Gundersen Clinic, Ltd., priority 1998, dated 2000).
“And” between values parts separate entries of the source, which are not always exact repeats. Identical values can stand only once. “Also recorded” adds a separate entry of the source.

Assays:
thromboxane-B2 = assay: Thromboxane (thromboxane-B2) blood levels after topical aspirin, Example 1; assay type: in vivo, human
Experimental: Five healthy adult volunteers (3 male, 2 female) were studied. Each refrained from ingesting oral aspirin for two weeks prior to study. Prior to treatment in accordance with the present invention, baseline thromboxane levels and hemoccults were obtained.
Thromboxane levels were measured by assaying for blood levels of thromboxane-B2 in accordance with the method described in Braden et al., Circulation 82:178 (1990). Thromboxane levels can also be measured in either blood or urine according to known methods which include those without limitation disclosed in the following references: Hirsh et al., supra; Robertson et al., N. Engl. J. Med. 304:998 (1981); Pedersen et al., N. Engl. J. Med. 311:1206 (1984); Patrignani et al., J. Clin. Invest. 69:1366 (1982); Preston et al., 304:76 (1981); Hirsh et al., N. Engl. J. Med. 304:685 (1981).
A preparation of aspirin in isopropyl alcohol and propylene glycol was prepared by mixing "Aspirsol"™ topical aspirin (NDC54102-001-01; commercially available from TERRI Pharmaceuticals, Inc., PO Box 6454, Kingwood, Tex. 77325) in accordance with the package instructions except that 8 ml instead of 10 ml of the suspending solution was used. The resulting solution contained approximately 9% aspirin rather than the 7-8% indicated on the package label.
After base levels of thromboxane had been measured, the aspirin solution was first applied on the morning of Day 1 to the skin of the human subjects within an hour of mixing by rubbing the aspirin solution on the arms and/or chest of the subject. The application was repeated with freshly prepared solution for each of four additional mornings (Days 2-5) in the same manner. Between applications the subjects followed their normal schedule of bathing and showering. Eight hours after the fifth application (on Day 5) blood was drawn for salicylate levels and thromboxane levels to be determined. With one subject, blood was drawn for TXA2 levels every day just before application of a new aspirin solution (i.e., approximately 24 hours after application of the previous aspirin solution). Hemoccults were also tested.
Two of the subjects continued daily application for another five days (total ten days). For Days 6 and 7, aspirin solutions freshly prepared as described above were used. Beginning with Day 8, a different aspirin preparation was used. This second preparation was prepared by crushing aspirin tablets containing approximately 975 mg aspirin to form a powder. The powder was then formed into a paste with approximately 2 ml of distilled water. This paste was then mixed with 4 ml propylene glycol and 4 ml ethanol to produce approximately 10 ml of a cloudy solution. This cloudy solution was then filtered to remove excipients and other insoluble material found in the crushed aspirin tablets. After filtering, approximately 10 ml of a clear solution was obtained which contained approximately 9% aspirin. 8 ml of the resulting solution was used in each application. This second solution was applied to the two continuing subjects as previously described. Salicylate and thromboxane levels were checked after the tenth day.

[1] = test system: PGI2 formation in response to intravenous bradykinin; assay: Urinary PGI-M excretion at rest and after bradykinin infusion, Example 3; assay type: in vivo, human; details: for PGI-M (stim) post ASA: bradykinin-stimulated
Experimental: In an additional 4 subjects, we examined the increase in PGI2 formation in response to intravenous bradykinin prior to and following oral aspirin 75 mg or dermal aspirin 750 mg daily for 14 days. The protocol for bradykinin has been described previously [Clark, N.Engl.J.Med 325:1137 (1991)]. Volunteers were admitted after an overnight fast to the Clinical Research Center. Blood samples were obtained for serum TXB2 and the subject asked to void. Through a peripheral vein, 1 liter of normal saline was infused over 1 hour. After a further hour, bradykinin was infused in incremental doses of 100-800 ng/kg/min, each over 15 mm. The infusion was continued at the maximum tolerated dose for a total period of 2 hr. Blood pressure and heart rate were monitored continuously. Urine was collected in separate 2 hr aliquots prior to, during and following the bradykinin infusion.
^1 The excretion of TXM and PGIM before and following dermal aspirin
750 mg/day or oral aspirin 75 mg/day for 10 days. Urine samples were
collected over 2 hr before (rest) and following the administration of […]

[2] = Plasma aspirin and salicylate after dermal aspirin (NICI-GCMS), Example 4; assay type: in vivo, human; details: dermal aspirin 750 mg, single application
Experimental: (§1) The preservation of vascular cyclooxygenase is consistent with the low bioavailability of the dermal aspirin. Plasma aspirin and salicylate were determined using a highly sensitive assay that can measure levels of <0.1 ng/ml. Following oral aspirin 325 mg or 162 mg, peak plasma aspirin levels were 2.0 and 1.3 ug/ml, respectively. In contrast, following dermal aspirin, plasma levels peaked at 237±114 ng/ml and plasma salicylate peaked at 788±114 ng/ml.
Aspirin was applied in a dose of 750 mg on one limb over a 15 min interval. Samples were drawn from the opposite arm. Blood was withdrawn into heparin (10 U/ml final concentration) and potassium fluoride (5% final concentration), the latter to prevent ex vivo metabolism of aspirin by plasma esterases. The plasma was separated immediately and stored at […] until analyzed. Aspirin and its metabolite, salicylic acid, were measured by NICI-GCMS using deuterium-labelled analogues as internal standards, as previously described [Clark, supra].

skin = assay: Skin reactions and histology after dermal aspirin; assay type: in vivo, human
[3] = Plasma aspirin levels following oral aspirin; assay type: in vivo; details: human
Experimental: as §1

thromboxane synthesis = details: cited from earlier work
[4] = Subject 1, baseline 401, about 24 h after previous application

Question: What does the source list for `CC(=O)Oc1ccccc1C(=O)O` [aspirin, acetyl salicylic acid]?
Answer: Decrease in thromboxane levels after five daily applications (thromboxane-B2; Day 5, subject 3 not considered): at least 50%; Thromboxane level, Day 3 (thromboxane-B2; [4]): 250 ng/cc; Thromboxane level, Day 4 (thromboxane-B2; [4]): 199 ng/cc; Thromboxane level, Day 5, prior to the Day 5 dose (thromboxane-B2; Subject 1, baseline 401, morning of Day 5): 105 ng/cc; Thromboxane level, Day 2 (thromboxane-B2; Subject 1, baseline 401, topical aspirin ~9% solution daily, about 24 h after previous application): 311 ng/cc; Thromboxane level, Day 10 (thromboxane-B2; two subjects continuing to ten daily applications, subject 1 baseline 401, subject 2 baseline 372): 18 ng/cc and 12 ng/cc; Suppression of thromboxane levels by Day 10 (thromboxane-B2; two subjects, ten daily applications): 95% and 97%; PGI-M (rest) post ASA ([1]; Dermal aspirin 750 mg/day, PT 1, pre ASA 163): 138; PGI-M (rest) post ASA ([1]; Dermal aspirin 750 mg/day, PT 2, pre ASA 105): 149; PGI-M (rest) post ASA ([1]; Oral aspirin 75 mg/day, PT 1, pre ASA 104): 63; PGI-M (rest) post ASA ([1]; Oral aspirin 75 mg/day, PT 2, pre ASA 200): 96; PGI-M (stim) post ASA ([1]; Dermal aspirin 750 mg/day, PT 1, pre ASA 1520): 1553; PGI-M (stim) post ASA ([1]; Dermal aspirin 750 mg/day, PT 2, pre ASA 559): 601; PGI-M (stim) post ASA ([1]; Oral aspirin 75 mg/day, PT 1, pre ASA 433): 173; PGI-M (stim) post ASA ([1]; Oral aspirin 75 mg/day, PT 2, pre ASA 340): 132; Resting and bradykinin-stimulated PGI-M excretion ([1]; dermal aspirin 750 mg/day): PGI2 formation in response to bradykinin infusion was also unaltered; also recorded: largely unaltered; also recorded: had not effect on; Resting and bradykinin-stimulated PGI-M excretion ([1]; oral aspirin 75 mg/day): suppressed basal and bradykinin-stimulated PGI-M excretion; also recorded: decrease in urinary PGI-M at rest and following stimulation with bradykinin; Plasma aspirin up to three hours [2]: barely detectable; concentration at 24 h ([2]; human, plasma, topical or ocular): 4 ± 3 ng/mL; Cmax ([2]; human, plasma, topical or ocular, read-out: Plasma aspirin, about 3 h (peak)): 237 ± 114 ng/mL; concentration at 6 h ([2]; human, plasma, topical or ocular, read-out: Plasma aspirin, six hours): 52 ± 14 ng/mL; Subjects with skin reactions, including erythema and peeling (skin; dermal aspirin): 30 % of subjects; Skin reactions with alternate day application (skin; dermal, alternate day, up to 8 weeks): without reactions for up to 8 weeks; Skin histology (skin; one subject, 10 days, 250 mg/day): no histological changes; Cmax ([3]; oral aspirin 75 mg, read-out: Levels following oral aspirin): 1000 to 2000 ng/mL; Cmax ([3]; oral aspirin 162 mg, read-out: Peak plasma aspirin level): 1300 ng/mL; Cmax ([3]; oral aspirin 325 mg, read-out: Peak plasma aspirin level): 2000 ng/mL; Thromboxane-B2 synthesis in vitro and urinary 2,3-dinor-thromboxane-B2 (thromboxane synthesis; approximately 40 mg/day): inhibit thromboxane-B2 synthesis in vitro and to reduce the urinary excretion of 2,3-dinor-thromboxane-B2; TXA2 and PGI2 synthesis (thromboxane synthesis; approximately 1,000 mg/day): inhibits both TXA2 and PGI2 synthesis; Maternal and neonatal thromboxane (thromboxane synthesis; low doses, women at risk for pregnancy-induced hypertension): selectively suppress maternal thromboxane levels, but only partially suppressed neonatal thromboxane
